# Measured values as given in patent publication US20100210538A1, “THERAPEUTIC USES OF INTERMEDIN 47 AND 53 PEPTIDES” (priority 2007, published 2010).
# Ends that are not written are not given here.
# Key:
# HCMV strain AD169 = test: HCMV plaque formation assay in MRC-5 cells; settings: for inhibition of HCMV plaque formation as compared to the virus control experiment: 10 micrograms per ml, 7-10 days
# From the text: Cells were split twic a week 1:2.
# Ganciclovir was used as positive control.
# RAW 264.7 cells = test: Phagocytosis assay (Fluorescein-labeled Escherichia coli, flow cytometry); settings: 10 micrograms per ml, Fluorescein-labeled E. coli, 60 min
# [1] = system: Primary Human endothelial cells (HUVEC); test: Endothelial cell migration assay; assay type: cell-based; settings: 10 micrograms per ml, 22 hours
# Procedure: Thereafter, designated concentration of testing peptides—10 micrograms per ml—was added in duplicate wells.
# HUVEC = test: Endothelial tube formation assay; assay type: cell-based, human; settings: 10 micrograms per ml, 20 hours
# From the text: Positive control was vehicle only. […] Raw data were expressed as average tubule lenghs in pixels±standard deviation.
# [2] = system: spleen cells of Ovalbumin-immunized Balb/c mice; test: Th1/Th2 cytokine profiling assay (Mouse Th1/Th2 Cytokine CBA Kit); assay type: cell-based; settings: 10 micrograms per ml; Ovalbumin restimulation, 72 hours
# From the text: The Balb/c mice (originated in 1923, it is a popular strain and is used in many different research disciplines. Also classified as an inbred from the production of 20 or more successive brother-sister matings, the Balb/c mouse is albino and small in size) were immunized on Days 1, 15, and 29 with Ovalbumin (Ovalbumin is the main protein found in egg white, commonly used to stimulate an immunological reaction in test animals) in PBS (5 micrograms/injection). On day 50, spleens of the mice were harvested (3 weeks after last boost with Ovalbumin). Cells were cultured (2×10^5/well in triplicate) and incubated with culture medium or test peptides—10 micrograms per ml—for 30 min. Thereafter, additional Ovalbumin was added to the cells at 10 micrograms/ml for in vitro restimulation of the cells. 72 hours later, cell supernatants were harvested and assayed using the Becton Dickinson Mouse Th1/Th2 Cytokine CBA Kit.
# [3] = system: hepatitis B virus (HBV) ayw strain; test: HBV assay, secreted HBV DNA by TaqMan PCR in HepG2-2.2.15 cells; assay type: cell-based; settings: 10 micrograms per ml, six days
# Procedure: HepG2-2.2.15 is a stable cell line containing the hepatitis B virus (HBV) ayw strain genome (ATCC Cat. No. CRL-11997). […] After 16-24 hours the confluent monolayer of HepG2-2.2.15 cells was washed and the medium was replaced with complete medium containing test peptides-10 micrograms per ml—in duplicate. […] Three days later the culture medium was replaced with fresh medium containing the peptides. Six days following the initial administration of the peptides, the cell culture supernatants was collected, treated with pronase and DNAse and then used in a real-time quantitative TaqMan PCR assay. The PCR-amplified HBV DNA was detected in real-time by monitoring increases in fluorescence signals that result from the exonucleolytic degradation of a quenched fluorescence probe molecule that hybridizes to the mplified HBV DNA. For each PCR amplification, a standard curve was simultaneously generated using dilutions of purified HBV DNA. Antiviral activity was calculated from the reduction in HBV DNA levels (% virus control). A novel dye uptake assay was then employed to measure cell viability, which is used to calculate toxicity (% cell control).
Molecule,antiviral activity of positive control compounds (HIV-1) (HIV-1IIIB),induction of phagocytosis as compared to the control experiment (RAW 264.7 cells),inhibition of HCMV plaque formation as compared to the virus control experiment (HCMV strain AD169) [%],inhibition of the tube formation of human endothelial cells (HUVEC) [%],IFNγ spleen cells; TH1 response (% of control) [2],IL-2 spleen cells (% of control) [2],IL-4 spleen cells; TH2 response (% of control) [2],IL-5 spleen cells; TH2 response (% of control) [2],TNF-a spleen cells; TH1 response (% of control) [2],also measured
Cc1cn([C@H]2C[C@H](N=[N+]=[N-])[C@@H](CO)O2)c(=O)[nH]c1=O [AZT],expected levels of antiviral activity,–,–,–,–,–,–,–,–,–
"Nc1nc(O)c2ncn(COC(CO)CO)c2n1 [Ganciclovir, reference compound]",–,–,–,–,–,–,–,–,–,"antiviral activity of positive control compound (HCMV) (HCMV strain AD169; positive control, HCMV AD169): expected levels of antiviral activity"
CC(C)(C)NC(=O)[C@@H]1CN(Cc2cccnc2)CCN1C[C@@H](O)C[C@@H](Cc1ccccc1)C(=O)N[C@H]1c2ccccc2C[C@H]1O [indinavir],expected levels of antiviral activity,–,–,–,–,–,–,–,–,–
His-Ser-Gly-Pro-Arg-Arg-Thr-Gln-Ala-Gln-Leu-Leu-Arg-Val-Gly-Cys-Val-Leu-Gly-Thr-Cys-Gln-Val-Gln-Asn-Leu-Ser-His-Arg-Leu-Trp-Gln-Leu-Met-Gly-Pro-Ala-Gly-Arg-Gln-Asp-Ser-Ala-Pro-Val-Asp-Pro-Ser-Ser-Pro-His-Ser-Tyr-NH2 (HSGPRRTQAQLLRVGCVLGTCQVQNLSHRLWQLMGPAGRQDSAPVDPSSPHSY-NH2; cysteine pairing not given here) [peptide 1],–,did not induce phagocytosis,1.8,19,21.7 % of control,75.6 % of control,166.9 % of control,34.5 % of control,70.0 % of control,inhibition of the migration of endothelial cells [1]: 8%
Thr-Gln-Ala-Gln-Leu-Leu-Arg-Val-Gly-Cys-Val-Leu-Gly-Thr-Cys-Gln-Val-Gln-Asn-Leu-Ser-His-Arg-Leu-Trp-Gln-Leu-Met-Gly-Pro-Ala-Gly-Arg-Gln-Asp-Ser-Ala-Pro-Val-Asp-Pro-Ser-Ser-Pro-His-Ser-Tyr-NH2 [peptide 2],–,34.3%,0.7,12,19.1 % of control,98.9 % of control,0.0 % of control,17.9 % of control,66.7 % of control,induction of the migration of human endothelial cells [1]: 19%; inhibition of HBV replication as compared to the virus control infection [3]: no effect
